The values below come from PubChem BioAssay AID608 (Sanford-Burnham Center for Chemical Genomics, 2007).

The structures appear in SMILES notation. Active and inactive are the calls of the source. How the calls were made is not given here.

The target of the test is Peptidyl-prolyl cis-trans isomerase FKBP1A (Homo sapiens) (UniProt P62942). Description: FKBP12 binders, biophysical, NMR detection (AID 608). As to conditions: NMR binding, purified FKBP12.
Sequence of Peptidyl-prolyl cis-trans isomerase FKBP1A (Homo sapiens) (P62942 whole entry, looked up): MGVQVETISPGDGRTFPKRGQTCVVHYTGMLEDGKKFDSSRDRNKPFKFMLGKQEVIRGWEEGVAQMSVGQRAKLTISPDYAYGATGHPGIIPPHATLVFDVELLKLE
One may read the Kd as the equilibrium constant for the complex coming apart. On to `CCOC(=O)C1CCN(Cc2ccccc2)CC1=O` (centres undefined), for which the Kd is > 4 mM (inactive). On to `c1cncc(Cn2cccc2)c1`, for which the Kd was > 4 mM (inactive). In the case of `c1ccc(CCNc2ncnc3nc[nH]c23)cc1`, the Kd is > 4 mM (inactive).

For the compound `NC(=O)C(=O)Nc1nc(-c2ccccc2)cs1`, the Kd was > 4 mM (inactive). In the case of `COC(=O)c1ccc(N2CCOCC2)nc1`, the Kd is > 4 mM (inactive). Take `Cn1cccc1C(=S)N1CCOCC1`: the Kd is > 4 mM (inactive). As for `CCOC(=O)c1cc2ccccc2oc1=O`, the Kd is > 4 mM (inactive). For the compound `CCOC(=O)c1[nH]cnc1C(=O)OC(C)C`, the Kd was > 4 mM (inactive). In the case of `Cc1ccc(NC(=O)C(=O)Nc2ccccn2)cc1` it was > 4 mM (inactive); in that of `COc1ccc(-c2oc3c(CC=C(C)C)c(O[C@@H]4O[C@H](CO)[C@@H](O)[C@H](O)[C@H]4O)cc(O)c3c(=O)c2O[C@@H]2O[C@@H](C)[C@H](O)[C@@H](O)[C@H]2O)cc1`, > 4 mM (inactive); in that of `COc1ccc(C2(CN)CCOCC2)cc1OC`, > 4 mM (inactive).

For the compound `Cc1nc(-c2ccc(NS(C)(=O)=O)cc2)cs1`, the Kd is > 4 mM (inactive). Take `O=C(O)Cn1cc(C(F)(F)F)ccc1=O`: the Kd was > 4 mM (inactive). The value for `O=C(O)c1cccnc1N1CCOCC1` was > 4 mM (inactive); that for `Cc1ccc(-c2nc(-c3cccnc3)no2)c(C)c1` was > 4 mM (inactive). The value for `NC(=O)c1ccc(-c2csnn2)cc1` was > 4 mM (inactive); that for `CCCCN1C(=O)N(C)C2NC(=O)NC21` (centres undefined) was > 4 mM (inactive). The value for `Nn1c(CN2CCCCC2)nc2ccccc2c1=O` was > 4 mM (inactive); that for `c1nnc2c3c4c(sc3ncn12)CCCC4` was > 4 mM (inactive). Regarding `CC1CCN(C(=O)c2ccc3c(c2)OCCO3)CC1`, the Kd was > 4 mM (inactive). Regarding `COC(=O)c1cc(-c2c(C)nn(-c3ccccc3)c2C)n[nH]1`, the Kd is > 4 mM (inactive). Turning to `Cc1cccc(NC(=O)c2ccc(=O)[nH]n2)c1`, the Kd was > 4 mM (inactive). Take `Cn1cc(Cl)c(C(=O)NC2CCCCCC2)n1`: the Kd is > 4 mM (inactive).

For `COc1ccc(C(=O)/C=C2\NC(=S)NC2=O)cc1`, the Kd is > 4 mM (inactive). With `Cc1occc1C(=O)NC1CCN(C)CC1`, the Kd was > 4 mM (inactive). In the case of `CC(C)Oc1ccc(NC(N)=O)cc1` it was > 4 mM (inactive); in that of `Cc1cc(Cl)ccc1OCC(=O)N1CCOCC1`, “inactive”; in that of `CC12CC[C@H](CC1=O)C2(C)C`, > 4 mM (inactive).

Consider `COC(=O)/C(C)=C\CC12OC(C)(C)C3CC(C=C4C(=O)c5c(OC)c6c(c(CC=C(C)C)c5OC431)OC(C)(CCC=C(C)C)C=C6)C2=O` (centres undefined), for which the Kd is > 4 mM (inactive). In the case of `COc1cc2cc[n+]3cc4c(OC)c(OC)ccc4cc3c2cc1OC`, the Kd was > 4 mM (inactive). For `Nc1nonc1-c1nc2ccccc2[nH]1`, the Kd was > 4 mM (inactive). Turning to `CC1=C(C(N)=O)C(c2cccs2)C(C(N)=O)=C(C)N1`, the Kd was > 4 mM (inactive). As for `O=C(Nc1ccc(F)cc1F)c1ccco1`, the Kd was > 4 mM (inactive). Regarding `COc1ccc(CC(=O)c2ccc(O)cc2O)cc1`, the Kd is > 4 mM (inactive). Consider `c1ccc(-c2nsc(N3CCCNCC3)n2)cc1`, for which the Kd is > 4 mM (inactive). The value for `O=C(CNC(=O)c1cccs1)NC1=NCCS1` was > 4 mM (inactive); that for `Nc1nc(-c2ccncc2)cs1` was > 4 mM (inactive); that for `OCc1cccc2c1OCO2` was > 4 mM (inactive). In the case of `C=C1C[C@]23C[C@@]1(O)CC[C@H]2[C@@]12C=C[C@H](O)C(C)(C(=O)O1)[C@H]2[C@@H]3C(=O)O`, the Kd was > 4 mM (inactive). For `CC1(C)Cc2c(c(-c3ccco3)[nH]c(=O)c2C#N)CO1`, the Kd is > 4 mM (inactive). Regarding `CCn1nnc(NC(=O)c2ccccc2Br)n1`, the Kd is > 4 mM (inactive).

As to `O=[N+]([O-])c1cccc(-c2c[n+](=O)c3c(n2[O-])CCC3)c1`, the Kd is > 4 mM (inactive).

Consider `Cn1c(CN)nc2ccccc21`, for which the Kd was > 4 mM (inactive). `O=C(O)CN1C(=O)c2cccc([N+](=O)[O-])c2C1=O`: the Kd is > 4 mM (inactive). In the case of `N=c1n(N)c2ccccc2n1CCO`, the Kd is > 4 mM (inactive).

As to `CN1CCC[C@H]1c1cccnc1`, the Kd is > 4 mM (inactive). On to `Cc1cc(C)cc(NS(=O)(=O)N2CCCCC2)c1`, for which the Kd entry was “inactive”. In the case of `CC(C)(C)CC(=O)NC1=NCCS1` it was > 4 mM (inactive). Turning to `O=C(NC(=S)NC1CCS(=O)(=O)C1)c1ccccc1` (centres undefined), the Kd was > 4 mM (inactive). Regarding `Cc1nnc(NCc2cccnc2)[nH]c1=O`, the Kd is > 4 mM (inactive). In the case of `O=C1CS/C(=N/N=C/c2cccs2)N1` it was > 4 mM (inactive); in that of `CCOC(=O)c1c(C)[nH]c2ccc(O)cc12`, > 4 mM (inactive). As to `COc1ccc(C2(C)NC(=O)NC2=O)cc1` (centres undefined), the Kd is > 4 mM (inactive). For `Cn1nnc2cc(CN)ccc21`, the Kd was > 4 mM (inactive). As to `O=C(c1ccccc1)c1cncc(Br)c1`, the Kd was > 4 mM (inactive).

For `CSc1nc(NC(C)(C)C)nc(N2CCOCC2)n1`, the Kd is > 4 mM (inactive).

In the case of `O=C(NCc1ccco1)c1cccc(F)c1`, the Kd was > 4 mM (inactive). On to `Cc1cccc(NC(=O)CN2C(=O)CNC2=O)c1`, for which the Kd was > 4 mM (inactive).

For `CC(=O)c1c(C)nc(-c2ccc(Cl)cc2Cl)n1O`, the Kd was > 4 mM (inactive). The value for `Nc1ncnc2nc[nH]c12` was > 4 mM (inactive); that for `Cc1ccc(CCNc2ccccc2)c[n+]1[O-]` was > 4 mM (inactive).

With `NC(=O)c1ccc(N2C(=O)CCC2=O)cc1Cl`, the Kd was > 4 mM (inactive).

With `CCOc1ccc(C)cc1S(=O)(=O)n1ccnc1`, the Kd is > 4 mM (inactive). With `COc1cc2c(c(OC)c1OC)-c1ccc(OC)c(=O)cc1[C@@H](NC(C)=O)CC2`, the Kd was > 4 mM (inactive). On to `COc1cc(CNCCc2ccc(S(N)(=O)=O)cc2)ccc1OCC(=O)N1CCOCC1`, for which the Kd is > 4 mM (inactive). Regarding `Cc1ccc(-c2nn3c(C)nnc3s2)cc1N`, the Kd is > 4 mM (inactive).

Consider `Nc1ncnc(Cl)c1[N+](=O)[O-]`, for which the Kd was > 4 mM (inactive).

As for `O=c1ccn([C@@H]2O[C@H](COP(=O)(O)OP(=O)(O)OP(=O)(O)O)[C@@H](O)[C@H]2O)c(=O)[nH]1`, the Kd was > 4 mM (inactive). `Nc1ccc2[nH]ccc2c1`: the Kd is > 4 mM (inactive).

Consider `CC(=O)O[C@H]1CC[C@@]2(C)C(=CCC3C2CC[C@@]2(C)C3CC[C@@H]2C(C)CCCC(C)C)C1` (some centres undefined), for which the Kd is > 4 mM (inactive). For `C=CCn1c(-c2ccc(O)cc2)n[nH]c1=S`, the Kd is > 4 mM (inactive). Turning to `Cn1c2ccccc2n2c(=S)[nH]nc12`, the Kd was > 4 mM (inactive). `O=S(=O)(NCc1ccco1)c1cccc2cccnc12`: the Kd is > 4 mM (inactive). The value for `Cc1ccccc1NC(=O)C1CC(=O)N=C(N)S1` (centres undefined) was > 4 mM (inactive).
